We go through five compounds from US20220127297A1, “Novel Antibacterial 3"-Derivatives Of 4,6-Disubstituted 2,5-Dideoxystreptamine Aminoglycoside Antibiotics” (AGILeBiotics B.V., priority 2018, published 2022).

Some results are limits rather than exact numbers.

Assay [1] deals with Klebsiella pneumoniae ATCC 43816. Description: Murine neutropenic thigh model of infection. It is filed as in vivo, male CD-1 mice. The settings on record: for Avg. Log CFU/g thigh: 24 h post infection; for survival rate: first study, vehicle group 50% mortality; for Avg. Log CFU/g: thigh, 24 hours post infection. On the procedure: 4.1 Murine Neutropenic Thigh Model of Infection (Kiebsiella Pneumoniae ATCC 43816)
A comparator antibiotic (meropenem; Cat. No. 1392454, USP) was used during both studies.
During the first study ABX5006 and ABX5020 were tested at a dose of 64 mg/kg (group 5 for ABX5006, group 8 for ABX5020), 16 mg/kg (group 4 for ABX5006, group 7 for ABX5020) and of 4 mg/kg (group 3 for ABX5006, group 6 for ABX5020).
During a second study ABX5026 and ABX5039 were tested at a dose of 4 mg/kg (group 5 for ABX5026, group 8 for ABX5039), 1 mg/kg (group 4 for ABX5026, group 7 for ABX5039) and of 0.25 mg/kg (group 3 for ABX5026, group 6 for ABX5039).
Animals were dosed subcutaneously (10 mL/kg) twice with 8 h interval. […] A CFU count below limit of detection (LOD=1.0×10^2 CFU/mL) was substituted with the value 0 in order to perform statistical analysis.
Inoculum preparation for intramuscular infection. The strain was streaked out onto MH agar.

For another assay, the system named is E. coli C1181. Description: MIC determination at Uppsala University. It is filed as cell-based. The settings on record: Escherichia coli, ANT(3″)-Ia, APH(3′)-Ia. The text has this:
(§1) 3.4.1 MIC Determination at Uppsala University (Sweden)
(§2) Tested reference compounds. Amikacin disulfate (Cat. No. A1774, Sigma Aldrich), Apramycin sulfate (Cat. No. A2024, Sigma Aldrich) and Gentamicin sulfate (Cat. No. G1914, Sigma Aldrich).
(§3) Bacterial strains/isolates. All assayed laboratory and clinical strains (P. aeruginosa PA01, A. baumanii ATCC 19606, A. baumanii 195N(a), A. baumanii 48F, E. coli C1162, E. coli C1181, M. morgannii S49 and P. stuartii B8-1) were from the IMI ND4BB ENABLE consortium strain collection. ATCC laboratory strains were acquired directly from the American Type Culture Collection. Clinical strains used were previously published (M Juhas, et al. J. Antimicrob. Chemother., 74 (4), 944-952 (2019); D. Hughes et al., Antimicrob. Agents Chemother., 47 (10), 3222-3232 (2003)) and were resistance genotyped within the ENABLE consortium.
(§4) Culture media and equipment. Water (Thermo Scientific, R05819); Mueller-Hinton II broth (BD Ref. 212322); sterile round-bottom 96-well plates (Thermo Scientific, 262162); Sensititre Nephelometer (ThermoFisher Scientific, V3011); 0.5 McFarland Standard (ThermoFisher Scientific, E1041); sterile polyester film (VWR, 391-1251).
(§5) Compound preparation. MIC assay procedure follows the CLSI M07 standard method (Clinical and Laboratory Standards Institute (CLSI); Methods for dilution antimicrobial susceptibility tests for bacteria that grow aerobically; approved standard—eleventh edition, M07-A10, Vol. 38, No. 2, 2018). Test compounds were received as solids and were dissolved in water to a concentration of 10 mg/mL of active compound. […] This solution was serially diluted in 2-fold steps in the first 10 columns of sterile round-bottom 96-well plates, while the final two columns were filled with Mueller-Hinton II broth without added compound for use as positive and negative growth controls.
(§6) Inoculum preparation. Inoculums were prepared by suspending several colonies freshly streaked culture of test strains in 5 mL of sterile 0.9% NaCl. The cell density of the inoculum solution was assessed and adjusted using a Sensititre Nephelometer and a 0.5 McFarland Standard. The inoculum was diluted 1:100 in Mueller-Hinton II broth and 50 μL of this inoculum solution was added to 50 μL of the test compound solutions yielding a concentration range of 64-0.125 μg/mL. The plates were sealed with sterile polyester film and stationarily incubated at 37° C. for 18 hours.
(§7) MIC determination. The MIC value was determined by visual inspection of bacterial growth within 96-well plates. The lowest concentration completely inhibiting growth was reported as the MIC for each strain and compound combination.

For another assay, the system named is P. stuartii B8-1. Description: MIC determination at Uppsala University. The settings on record: Providencia stuartii, B81, AAC(3)-Ic, ANT (3″)Ia, APH(3′)-IIa, APH(3′)-IIb, APH(3′)-VI, APH(6)-Ic. Format: cell-based.
Description: as §1, §2, §3, §4, §5, §6, §7

The subject of a further assay is M. morgannii S49. Description: MIC determination at Uppsala University. Format: cell-based. The settings on record: Morganella morganii, AAC(3)-IId, ANT(3″), APH(3″)-Ib, APH(3′)-Ia, APH(6)-Id.
Description: as §1, §2, §3, §4, §5, §6, §7

The next assay has as its system E. coli C1162. Description: MIC determination at Uppsala University. Format: cell-based. As to conditions: Escherichia coli, APH(3′)-Ia.
Description: as §1, §2, §3, §4, §5, §6, §7

In another assay the test system is A. baumanii 48F. Description: MIC determination at Uppsala University. As to conditions: Acinetobacter baumannii; A. boumanii 48F; ANT(2″)Ia, APH(3″)-Ib, APH(3′)-VIa, APH(6)-Id. Format: cell-based.
Description: as §1, §2, §3, §4, §5, §6, §7

Another assay deals with A. baumanii ATCC 19606. Description: MIC determination at Uppsala University. It is filed as cell-based. As to conditions: Acinetobacter baumannii, ATCC19606, AMEs: WT.
Description: as §1, §2, §3, §4, §5, §6, §7

Another assay relates to P. aeruginosa PAO1. Description: MIC determination at Uppsala University. Format: cell-based. As to conditions: Pseudomonas aeruginosa, AMEs: WT.
Description: as §1, §2, §3, §4, §5, §6, §7

Another assay concerns A. baumanii 195N (a). Description: MIC determination at Uppsala University. Format: cell-based. As to conditions: Acinetobacter baumannii, AAC(3)Ia, ANT(3″)Ia, APH(3″)Ib, APH(3′)VI, APH(6)Id.
Description: as §1, §2, §3, §4, §5, §6, §7

The mark [2] stands for this setting: Log CFU/g thigh, dose 4 mg/kg SC BID.
Setting [3] is: Log CFU/g thigh, dose 16 mg/kg SC BID.
The mark [4] stands for this setting: Log CFU/g thigh, dose 64 mg/kg SC BID.
Where [5] appears, read: dose 0.25 mg/kg, SC, BID, Avg. Log CFU/g thigh vs vehicle.
Setting [6] is: dose 1 mg/kg, SC, BID, Avg. Log CFU/g thigh vs vehicle.
Setting [7] is: dose 4 mg/kg, SC, BID, Avg. Log CFU/g thigh vs vehicle.

A word on the MIC90: it is the lowest concentration that inhibits either 90% of growth or 90% of the strains tested, depending on the study. As for `N=C(N)NC1C(O)[C@@H](CO)OC(OC2C(F)[C@H](O[C@H]3OC(CN)[C@@H](O)CC3N)C(N)C[C@H]2NC(=O)[C@@H](O)CCN)[C@@H]1O` (stereo partly shown) [ABX5006, Tobra-AHB-F-Gua], the “Change from vehicle group” value in [1] (setting [2]) was −7.05; in assay [1] (setting [3]) it was −8.36; in assay [1] (setting [4]) it was −9.13. In [1] (dose 4 mg/kg SC BID), the “CFU count reduction in comparison to the vehicle control group” value (“CFU count reduction in comparison” for short) stood at 7 log 10. Besides, the “Avg. Log CFU/g thigh” value worked out at 2.47 Log CFU/g in assay [1] (dose 4 mg/kg SC BID), 1.15 Log CFU/g in assay [1] (dose 16 mg/kg SC BID) and 0.38 Log CFU/g in [1] (dose 64 mg/kg SC BID). In addition, the survival rate in [1] is 100%. Moreover, the MIC90 with E. coli C1181 stood at 1 µg/mL; in the assay on P. stuartii B8-1, 4 µg/mL; in the assay on M. morgannii S49 it was 1 µg/mL; in the assay on E. coli C1162 it was 1 µg/mL; with A. baumanii 48F it was 4 µg/mL; in the assay with A. baumanii ATCC 19606, 8 µg/mL. For the same compound, the figures for the MIC90 with P. aeruginosa PAO1 and in the assay on A. baumanii 195N (a) were 1 µg/mL and 4 µg/mL, respectively.
Turning to `N=C(NC[C@@H]1CCCN1)NC1[C@@H](O)C(OC2[C@@H](F)[C@H](O[C@H]3OC(CN)[C@@H](O)CC3N)C(N)C[C@H]2NC(=O)[C@@H](O)CCN)O[C@H](CO)[C@H]1O` (stereo partly drawn) [ABX5026, Tobra-AHB-F-Gua (S) pyrrolidine-2-yl-methyl], the “Change from vehicle group” value in assay [1] (setting [5]) is 1.80; in assay [1] (setting [6]), 6.44; in assay [1] (setting [7]) it was 7.56. Further, the “Avg. Log CFU/g” value was 7.98 Log CFU/g in [1] (dose 0.25 mg/kg, SC, BID); 3.34 Log CFU/g in assay [1] (dose 1 mg/kg, SC, BID); 2.22 Log CFU/g in assay [1] (dose 4 mg/kg, SC, BID). The “CFU count reduction in comparison” value in assay [1] (dose 1 mg/kg SC BID) is greater than 6 log 10. The MIC90 in the assay with E. coli C1181 was 0.5 µg/mL; with P. stuartii B8-1, 2 µg/mL; in the assay with M. morgannii S49, 2 µg/mL; with E. coli C1162, 1 µg/mL; in the assay on A. baumanii 48F, 4 µg/mL; in the assay on A. baumanii ATCC 19606, 8 µg/mL. Further, the MIC90 in the assay with P. aeruginosa PAO1 came out at 1 µg/mL; in the assay on A. baumanii 195N (a), 8 µg/mL.
For `N=C(NC[C@@H]1CCNC1)NC1[C@@H](O)C(OC2[C@@H](F)[C@H](O[C@H]3OC(CN)[C@@H](O)CC3N)C(N)C[C@H]2NC(=O)[C@@H](O)CCN)O[C@H](CO)[C@H]1O` (stereo partly drawn) [ABX5039, Tobra-AHB-F-Gua (R) pyrrolidine-3-ylmethyl], the results for the “Change from vehicle group” value in assay [1] (setting [5]), in [1] (setting [6]) and in assay [1] (setting [7]) were 0.70, 4.71 and 7.55, respectively. Also, the “Avg. Log CFU/g” value in [1] (dose 0.25 mg/kg, SC, BID) turned out to be 9.08 Log CFU/g; in assay [1] (dose 1 mg/kg, SC, BID), 5.07 Log CFU/g; in [1] (dose 4 mg/kg, SC, BID), 2.23 Log CFU/g. In addition, in assay [1] (dose 1 mg/kg SC BID), the “CFU count reduction in comparison” value was greater than 4 log 10. Besides, the MIC90 turned out to be 0.5 µg/mL in the assay with E. coli C1181; 2 µg/mL in the assay on P. stuartii B8-1; 1 µg/mL in the assay on M. morgannii S49; 1 µg/mL with E. coli C1162; 4 µg/mL in the assay on A. baumanii 48F; 8 µg/mL in the assay on A. baumanii ATCC 19606. Moreover, the MIC90 was 1 µg/mL with P. aeruginosa PAO1 and 4 µg/mL with A. baumanii 195N (a).
As for `NCC[C@H](O)C(=O)N[C@@H]1C[C@H](N)[C@@H](O[C@H]2O[C@H](CN)[C@@H](O)[C@H](O)[C@H]2O)[C@H](O)[C@H]1O[C@H]1O[C@H](CO)[C@@H](O)[C@H](N)[C@H]1O` [Amikacin, amikacin, reference compound], the MIC90 in the assay with E. coli C1181 was 4 µg/mL; with P. stuartii B8-1 it was greater than 64 µg/mL; in the assay on M. morgannii S49 it was 4 µg/mL; in the assay on E. coli C1162, 4 µg/mL; with A. baumanii 48F it was greater than 64 µg/mL; in the assay on A. baumanii ATCC 19606 it was 16 µg/mL. Further, the MIC90 in the assay with P. aeruginosa PAO1 was 4 µg/mL; with A. baumanii 195N (a) it was greater than 64 µg/mL.
Turning to `N=C(NCCN)NC1C(O)[C@@H](CO)OC(OC2C(F)[C@H](O[C@H]3OC(CN)[C@@H](O)CC3N)C(N)C[C@H]2NC(=O)[C@@H](O)CCN)[C@@H]1O` (stereo partly shown) [ABX5020, Tobra-AHB-F-Gua-2-amino-ethyl], the “Change from vehicle group” value in assay [1] (setting [2]) is −8.04; in [1] (setting [3]) it was −8.14; in [1] (setting [4]) it was −9.32. Moreover, the figures for the “Avg. Log CFU/g thigh” value in assay [1] (dose 4 mg/kg SC BID), in assay [1] (dose 16 mg/kg SC BID) and in assay [1] (dose 64 mg/kg SC BID) were 1.47 Log CFU/g, 1.37 Log CFU/g and 0.19 Log CFU/g, respectively. The compound also came in with a survival rate in assay [1] of 100%.
